From patent US4189433A, “4-Hydroxy-1,2-benzisothiazoles and their manufacture” (BASF Aktiengesellschaft, priority 1977, dated 1980)

Tests used:
cardiac β1-receptors = biological target: T1, cardiac β1-receptors (Rattus norvegicus, UniProt P18090); assay: β1-sympatholytic action: inhibition of Isoproterenol tachycardia in pithed rats; format: in vivo, rat (Sprague-Dawley; settings: Propranolol = 1.00, intravenous
T1 construct: in pithed rats (Sprague-Dawley, Mus rattus; weight 230-280 g); from tissue; host or cells: heart in situ of pithed Sprague-Dawley rats (in vivo)
Source text: (§1) The following are examples of compounds of the general formula III and/or of their acid addition salts with a physiologically safe acid: 4-(2-hydroxy-3-isopropylamino-propoxy)-1,2-benzisothiazole (III), 4-(2-hydroxy-3-tert.-butylaminopropoxy)-1,2-benzisothiazole (IV), 4-[2-hydroxy-3-(3-methylpentyl-3-amino)-propoxy]-1,2-benzisothiazole (VII), 4-[2-hydroxy-3-(2-methyl-butyl-2-amino)-propoxy]-1,2-benzisothiazole (VI), 4-[2-hydroxy-3-(2-methyl-3-but-2-ynylamino)-propoxy]-1,2-benzisothiazole (VIII), 4-(2-hydroxy-3-sec.-butylaminopropoxy-1,2-benzisothiazole (V), 4-[2-hydroxy-3-(1-methoxy-propyl-2-amino)-propoxy]-1,2-benzisothiazole (IX) and 4-[2-hydroxy-3-(pentyl-2-amino)-propoxy]-1,2-benzisothiazole (X).

[1] = biological target: T2, β2-receptors on the blood vessels (Rattus norvegicus, UniProt P10608); assay: β2-sympatholytic action: inhibition of Isoproterenol blood pressure reduction in rats under urethane narcosis; format: in vivo; settings: for R.A. (relative activity), β2-sympatholytic action: Propranolol = 1.00; for R.A. (relative activity), β2-sympatholytic action / Q (footnote 6; numerically ED 50 β2 / ED 50 β1): intravenous; for Q (footnote 6; numerically ED 50 β2 / ED 50 β1): cardioselectivity quotient, rats
T2 construct: was tested on rats, weighing 230-280 g, under urethane narcosis; from tissue; host or cells: blood vessels in situ of urethane-anaesthetised rats (in vivo)
Source text: as §1

female Swiss mice = assay: in vivo; settings: mouse
Method: (§2) The acute toxicity was determined on groups of 10 or 20 female Swiss mice weighing 20-26 g, the compounds being administered intraperitoneally.

[2] = Stability to light and to air; format: physicochemical; settings: compared to 7-amino-4-hydroxy-1,2-benzisothiazole
in vivo = settings: mouse
Method: as §2

T2 sequence (P10608 whole entry): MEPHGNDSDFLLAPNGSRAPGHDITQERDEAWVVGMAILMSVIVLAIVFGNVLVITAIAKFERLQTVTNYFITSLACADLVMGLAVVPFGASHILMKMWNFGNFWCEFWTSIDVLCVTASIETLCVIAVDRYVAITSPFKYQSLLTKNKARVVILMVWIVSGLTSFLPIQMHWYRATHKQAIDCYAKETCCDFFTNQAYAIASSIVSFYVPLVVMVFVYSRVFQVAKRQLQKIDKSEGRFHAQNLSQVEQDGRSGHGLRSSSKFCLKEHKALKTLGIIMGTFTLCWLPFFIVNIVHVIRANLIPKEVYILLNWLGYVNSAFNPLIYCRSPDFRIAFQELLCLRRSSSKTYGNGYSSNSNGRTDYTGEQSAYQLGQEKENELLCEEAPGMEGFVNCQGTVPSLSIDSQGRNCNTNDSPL
T1 sequence (P18090 whole entry): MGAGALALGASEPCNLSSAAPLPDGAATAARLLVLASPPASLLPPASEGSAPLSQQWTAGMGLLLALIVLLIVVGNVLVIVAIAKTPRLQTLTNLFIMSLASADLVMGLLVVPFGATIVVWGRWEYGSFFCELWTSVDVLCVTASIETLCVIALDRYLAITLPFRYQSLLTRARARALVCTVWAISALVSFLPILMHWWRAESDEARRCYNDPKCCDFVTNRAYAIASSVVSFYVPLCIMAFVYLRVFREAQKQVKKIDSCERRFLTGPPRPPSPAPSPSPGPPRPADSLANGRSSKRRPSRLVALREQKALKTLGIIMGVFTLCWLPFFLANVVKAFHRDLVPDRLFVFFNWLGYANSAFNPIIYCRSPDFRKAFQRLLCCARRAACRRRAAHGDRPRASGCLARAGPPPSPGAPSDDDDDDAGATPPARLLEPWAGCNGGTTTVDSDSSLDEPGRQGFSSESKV

| Structure (SMILES) | R.A. (relative activity), β1-sympatholytic action (cardiac β1-receptors) | R.A. (relative activity), β2-sympatholytic action ([1]; rats under urethane narcosis) | Q (footnote 6; numerically ED 50 β2 / ED 50 β1) [1] | Therapeutic range, relative (female Swiss mice) | reduction of the mean pressure of the carotid artery, average ([1]; Isoproterenol 0.215 μg/kg i.v., rats under urethane narcosis) | stability to light and to air [2] | selectivity ratio (in vivo) |
| --- | --- | --- | --- | --- | --- | --- | --- |
| CCC(C)NCC(O)COc1cccc2sncc12 (stereo not drawn) [V, 4-(2-Hydroxy-3-sec.-butylamino-propoxy)-1,2-benzisothiazole] | 8.04 | 1.08 | 6.93 | 7.18 | – | – | – |
| CCC(C)(C)NCC(O)COc1cccc2sncc12 (stereo not drawn) [VI, 4-[2-hydroxy-3-(2-methyl-butyl-2-amino)-propoxy]-1,2-benzisothiazole] | 6.68 | 1.38 | 4.48 | 8.92 | – | – | – |
| CCCC(C)NCC(O)COc1cccc2sncc12 (stereo not drawn) [X, 4-[2-hydroxy-3-(pentyl-2-amino)-propoxy]-1,2-benzisothiazole] | 4.88 | 0.42 | 10.70 | 2.72 | – | – | – |
| CC(C)NCC(O)c1ccc(O)c(O)c1 (stereo not drawn) [Isoproterenol, reference compound] | – | – | – | – | 30% | – | – |
| COCC(C)NCC(O)COc1cccc2sncc12 (stereo not drawn) [IX, 4-[2-hydroxy-3-(1-methoxy-propyl-2-amino)-propoxy]-1,2-benzisothiazole] | 2.48 | 0.26 | 8.90 | 3.11 | – | – | – |
| CCC(C)(CC)NCC(O)COc1cccc2sncc12 (stereo not drawn) [VII, 4-[2-hydroxy-3-(3-methylpentyl-3-amino)-propoxy]-1,2-benzisothiazole] | 3.75 | 0.94 | 3.69 | 4.44 | – | – | – |
| C#CC(C)(C)NCC(O)COc1cccc2sncc12 (stereo not drawn) [VIII, 4-[2-hydroxy-3-(2-methyl-3-but-2-ynylamino)-propoxy]-1,2-benzisothiazole] | 5.35 | 1.98 | 2.50 | 9.11 | – | – | – |
| CC(=O)Nc1ccc(OC(C)=O)c2cnsc12 [7-acetamino-4-acetoxy-1,2-benzisothiazole] | – | – | – | – | – | increased stability to light and to air | – |
| CC(C)(C)NCC(O)COc1cccc2sncc12 (stereo not drawn) [IV, 4-(2-hydroxy-3-tert.-butylaminopropoxy)-1,2-benzisothiazole] | 7.55 | 2.84 | 2.47 | 10.76 | – | – | 94500 |
| CC(C)NCC(O)COc1cccc2sncc12 (stereo not drawn) [Example III, 4-(2-hydroxy-3-isopropylamino-propoxy)-1,2-benzisothiazole] | 6.47 | 2.71 | 2.21 | 3.72 | – | – | 32700 |
